# Read-outs that look alike come from different tables or passages of the source.
# Tests used:
# [1] = test system: cytochrome P-450 dependent retinoic acid metabolism; test: RA metabolism assay: in vitro inhibition of retinoic acid metabolism by P-450 inhibitors; settings: male, rat
# Description: (§1) Controls (10 μl, DMSO) were also carried with each experiment.
# (§2) The assay followed a previously described one [17]: The column was a 10 μm C18 μ Bondapak (3.9× 300mm, Millipore) and the mobile phase was acetonitrile: water: formic acid (75:25:0.05v/v) containing 10 mM ammonium acetate. Flow rate was 1.2 ml.Min^−1. Eluted ^3H compounds were detected on line by a model 970 detector (Reeve) using Hisafe III scintillation fluid. The retention time of ^3H-RA was 10 min and oxidative metabolites of ^3H-RA were detected, eluting samples over 3 to 7 min. Metabolism was determined from the % conversion of RA into its total metabolites based on AUC values.
# (§3) Three separate experiments (each with triplicate tubes) were carried out.
# (§4) The IC50 for ketoconazole and liarozole were determined for comparative purposes.
# (§5) The IC50 was calculated from a plot of percentage inhibition versus log inhibitor concentration using Cricket Graph 1.3.
# [2] = test system: cytochrome P-450 dependent retinoic acid metabolism in male rat hepatic microsomes; test: as above; settings: inhibitor 100 μM, RA 3 μM, male rat hepatic microsomes 0.12 mg/ml, 37°C, 15 min, mean of three determinations, (-) denotes stimulation of RA metabolism
# Description: as §1, §2, §3, §4, §5
# [3] = test system: cytochrome P-450 dependent retinoic acid metabolism in male rat hepatic microsomes; settings: pH 7.4
# Description: as §1, §2, §3, §4, §5
# [4] = set-up: method as in PMID 1328295; settings: cleared from the plasma; cited from earlier work
# mouse embryo = test system: mouse embryo; set-up: method as in PMID 1965892; settings: cited from earlier work
# [5] = rat liver microsomes, pH 7.4, probe 3H-retinoic acid (RA), 3 μM
compound,measurement,setting,value
CC(=O)N1CCN(c2ccc(OCC3COC(Cn4ccnc4)(c4ccc(Cl)cc4Cl)O3)cc2)CC1 (stereo not drawn) [Ketoconazole],IC50 at 15 min,[1]; [5],13.5 ± 1.3 µM
same,"inhibition at 15 min, 100 μM",[1]; [5],87.5%
NCCc1c[nH]cn1 [Histamine],"inhibition at 15 min, 100 μM",[1]; [5],0%
c1ccc2[nH]c(-c3cscn3)nc2c1 [Thiabendazole],"inhibition at 15 min, 100 μM",[1]; [5],-4.31%
Clc1ccc(COC(Cn2ccnc2)c2ccc(Cl)cc2Cl)cc1 (stereo not drawn) [Econazole],"inhibition at 15 min, 100 μM",[1]; [5],14%
CN/C(=N/CCSCc1nc[nH]c1C)NC#N [Cimetidine],"inhibition at 15 min, 100 μM",[1]; [5],1%
"Cc1ccc(-c2ncns2)cc1 [5-(4-Methylphenyl)-1,2,4-thiadiazole]","inhibition at 15 min, 100 μM",[1]; [5],4.8%
COC1=CC(=O)C[C@@H](C)[C@]12Oc1c(Cl)c(OC)cc(OC)c1C2=O [Griseofulvin],"inhibition at 15 min, 100 μM",[1]; [5],0%
CCC1(c2ccc(N)cc2)CCC(=O)NC1=O (stereo not drawn) [Aminoglutethimide],"inhibition at 15 min, 100 μM",[1]; [5],30.8%
C[C@@H]1[C@H](O)[C@@H](C)/C=C/C=C/CC/C=C/C=C/C=C/C=C/C(O[C@H]2O[C@H](C)[C@@H](O)[C@H](N)[C@@H]2O)CC2O[C@](O)(CC(O)C(O)CCC(O)CC(O)CC(O)CC(=O)O[C@H]1C)CC(O)C2C(=O)O (stereo partly drawn) [Nystatin],% Inhibition of retinoic acid metabolism,[2],5.44%
CCC1(c2ccccc2)C(=O)NC(=O)NC1=O [Phenobarbitone],% Inhibition of retinoic acid metabolism,[3],0.0%
c1ccc(-c2ccc(C(c3ccccc3)n3ccnc3)cc2)cc1 (stereo not drawn) [Bifonazole],"inhibition at 15 min, 100 μM",[1]; [5],47.5%
Clc1ccc(COC(Cn2ccnc2)c2ccc(Cl)cc2Cl)c(Cl)c1 (stereo not drawn) [Miconazole],"inhibition at 15 min, 100 μM",[1]; [5],13.5%
O=c1cc(O)c2ccccc2o1 [4-Hydroxycoumarin],% Inhibition of retinoic acid metabolism,[2],38.50%
O=C(Cn1ccnc1)c1ccc2ccccc2c1 [Nafimidone],"inhibition at 15 min, 100 μM",[1]; [5],12%
COc1ccc2c(c1)c(CC(=O)O)c(C)n2C(=O)c1ccc(Cl)cc1 [Indomethacin],"inhibition at 15 min, 100 μM",[1]; [5],0%
CN1C(=O)CC(c2ccccc2)C1=O (stereo not drawn) [Phensuximide],"inhibition at 15 min, 100 μM",[1]; [5],3.5%
CCC1(c2ccc([N+](=O)[O-])cc2)CCC(=O)NC1=O (stereo not drawn) [Nitroglutethimide],% Inhibition of retinoic acid metabolism,[2],−1.4%
"c1csc(-c2nnco2)c1 [2-(Thiophen-2-yl)-1,3,4-oxadiazole]","inhibition at 15 min, 100 μM",[1]; [5],0%
"CC1=C(/C=C/C(C)=C/C=C/C(C)=C/C(=O)O)C(C)(C)CCC1 [RA, All-trans-retinoic acid]",plasma t ½,[4],< 1 h
same,developmental / teratogenic effect,"mouse embryo; dose of 1 mg/Kg RA, mice",no teratogenic effects
same,increase in the level of RA in mouse embryo limb buds,mouse embryo; dose of 10 mg/Kg body weight of RA,approximately 50 fold
same,developmental / teratogenic effect,"mouse embryo; dose of 10 mg/Kg body weight of RA, mouse",developmental abnormalities
C[C@@H]1[C@H](O)[C@@H](C)/C=C/C=C/C=C/C=C/C=C/C=C/C=C/[C@H](O[C@@H]2O[C@H](C)[C@@H](O)[C@H](N)[C@@H]2O)C[C@@H]2O[C@](O)(C[C@@H](O)C[C@@H](O)[C@H](O)CC[C@@H](O)C[C@@H](O)CC(=O)O[C@H]1C)C[C@H](O)[C@H]2C(=O)O [Amphotericin],"inhibition at 15 min, 100 μM",[1]; [5],6.24%
C[C@@H](Cc1ccccc1)N(C)Cc1ccccc1 [Benzphetamine],% Inhibition of retinoic acid metabolism,[3],46.0%
c1ccc(CCNCc2ccccc2)cc1 [N-Benzyl-2-phenylethanamine],% Inhibition of retinoic acid metabolism,[2],85.0%
same,% Inhibition of retinoic acid metabolism,[2]; listed as N-benzyl-2-phenylethanamine,> 50%
same,IC50 at 15 min,[1]; pH 7.4,17.1 ± 3.2 µM
CC(=O)C[C@H](c1ccccc1)c1c(O)c2ccccc2oc1=O [R-Warfarin],% Inhibition of retinoic acid metabolism,[2],3.0%
CC(=O)C[C@@H](c1ccccc1)c1c(O)c2ccccc2oc1=O [S-Warfarin],% Inhibition of retinoic acid metabolism,[2],6.5%
CC(=O)Oc1ccccc1C(=O)O [Aspirin],"inhibition at 15 min, 100 μM",[1]; [5],5%
Clc1cccc(C(c2ccc3[nH]cnc3c2)n2ccnc2)c1 (stereo not drawn) [Liarozole],IC50 at 15 min,[1]; [5],4.2 ± 0.1 µM
same,"inhibition at 15 min, 100 μM",[1]; [5],89%
O=C(O)/C=C\C(=O)O.S=C(NC1CCCCC1)N1CCC(c2cnc[nH]2)CC1 [Thiopermide maleate],% Inhibition of retinoic acid metabolism,[2],3.4%
CCCC(C(=O)OCCN(CC)CC)(c1ccccc1)c1ccccc1 [Proadifen],% Inhibition of retinoic acid metabolism,[2],86.0%
same,% Inhibition of retinoic acid metabolism,[2]; listed as proadifen,> 50%
same,IC50 at 15 min,[1]; [5],1 ± 0.14 µM
"Clc1cccc(-c2cnco2)c1 [5-(3-Chlorophenyl)-1,3-oxazole]","inhibition at 15 min, 100 μM",[1]; [5],8.6%
CCC(C)n1ncn(-c2ccc(N3CCN(c4ccc(OCC5COC(Cn6cncn6)(c6ccc(Cl)cc6Cl)O5)cc4)CC3)cc2)c1=O (stereo not drawn) [Itraconazole],% Inhibition of retinoic acid metabolism,[2],68.7%
same,IC50 at 15 min,[1]; [5],17.4 ± 1 µM
same,"inhibition at 15 min, 100 μM",[1]; [5],> 50%
O=c1ccc2ccccc2o1 [Coumarin],"inhibition at 15 min, 100 μM",[1]; [5],37%
CN(C)CCCN1c2ccccc2Sc2ccc(Cl)cc21 [Chlorpromazine],% Inhibition of retinoic acid metabolism,[2],85.0%
same,% Inhibition of retinoic acid metabolism,[2]; listed as chlorpromazine,> 50%
same,IC50 at 15 min,[1]; [5],16.9 ± 1.7 µM
"Cc1nc2cc(-c3ccccc3)ccc2o1 [2-Methyl-5-phenyl-1,3-benzoxazole]","inhibition at 15 min, 100 μM",[1]; [5],18%
c1ccc(Cn2ccnc2)cc1 [1-Benzylimidazole],% Inhibition of retinoic acid metabolism,[2],7.6%
COc1ccc2ccc(=O)oc2c1 [7-Methoxycoumarin],"inhibition at 15 min, 100 μM",[1]; [5],11.7%
"Brc1ccc(-c2csnn2)cc1 [4-(4-Bromophenyl)-1,2,3-thiadiazole]","inhibition at 15 min, 100 μM",[1]; [5],11.6%
O=C(O)c1cc(-c2ccc(F)cc2F)ccc1O [Diflunisal],"inhibition at 15 min, 100 μM",[1]; [5],2%
Clc1ccccc1C(c1ccccc1)(c1ccccc1)n1ccnc1 [Clotrimazole],"inhibition at 15 min, 100 μM",[1]; [5],34.4%
